Data reported in patent US5789434A, “Derivatives of substituted 4-biarylbutyric acid as matrix metalloprotease inhibitors” (priority 1995, dated 1998).

Key:
Type in all cases: biochemical
MMP-3 = molecular target: T1, MMP-3 (Homo sapiens, UniProt P08254); test: Automated MMP Profiling Assay, MMP-3 fluorogenic; settings: for IC50: 96-well automated, P218
T1 construct: Truncated Prostromelysin-257 was expressed in a soluble form in E.coli; made in house; host or cells: E. coli
Source text: This assay with each invention compound was run with the three enzymes MMP-3, MMP-9 and MMP-2 in parallel as adapted for a 96-well microtitre plate using a Hamilton A® workstation.

MMP-9 = molecular target: T2, MMP-9 (Homo sapiens, UniProt P14780); test: Automated MMP Profiling Assay, MMP-9 fluorogenic; settings: for IC50: 96-well automated, P218
T2 construct: from tissue; host or cells: human polymorphonuclear leukocytes (PMN) from whole blood (New York Blood Center), PMA-stimulated supernatant
T2 sequence (P14780 107-707 limits assumed): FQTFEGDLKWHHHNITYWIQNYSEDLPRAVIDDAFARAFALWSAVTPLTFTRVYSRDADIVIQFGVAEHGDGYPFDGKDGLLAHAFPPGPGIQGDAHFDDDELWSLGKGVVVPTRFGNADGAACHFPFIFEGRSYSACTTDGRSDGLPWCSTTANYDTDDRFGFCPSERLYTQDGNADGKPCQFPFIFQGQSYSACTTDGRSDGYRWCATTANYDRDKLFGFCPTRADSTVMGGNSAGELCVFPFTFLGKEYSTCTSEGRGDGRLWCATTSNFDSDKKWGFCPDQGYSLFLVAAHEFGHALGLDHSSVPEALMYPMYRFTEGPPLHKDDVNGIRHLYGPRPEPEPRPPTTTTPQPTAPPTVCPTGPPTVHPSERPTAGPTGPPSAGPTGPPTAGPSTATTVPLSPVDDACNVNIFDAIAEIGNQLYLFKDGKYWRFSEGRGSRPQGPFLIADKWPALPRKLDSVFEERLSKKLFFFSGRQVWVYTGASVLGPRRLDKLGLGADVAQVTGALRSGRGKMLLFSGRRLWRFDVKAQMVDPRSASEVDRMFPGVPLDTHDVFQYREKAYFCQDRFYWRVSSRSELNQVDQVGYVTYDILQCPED

MMP-2 = molecular target: T3, MMP-2 (Homo sapiens, UniProt P08253); test: Automated MMP Profiling Assay, MMP-2 fluorogenic; settings: for IC50: 96-well automated, P218, read-out: MMP-2 Fluorogenic IC50 (profiling)
T3 sequence (P08253 110-660): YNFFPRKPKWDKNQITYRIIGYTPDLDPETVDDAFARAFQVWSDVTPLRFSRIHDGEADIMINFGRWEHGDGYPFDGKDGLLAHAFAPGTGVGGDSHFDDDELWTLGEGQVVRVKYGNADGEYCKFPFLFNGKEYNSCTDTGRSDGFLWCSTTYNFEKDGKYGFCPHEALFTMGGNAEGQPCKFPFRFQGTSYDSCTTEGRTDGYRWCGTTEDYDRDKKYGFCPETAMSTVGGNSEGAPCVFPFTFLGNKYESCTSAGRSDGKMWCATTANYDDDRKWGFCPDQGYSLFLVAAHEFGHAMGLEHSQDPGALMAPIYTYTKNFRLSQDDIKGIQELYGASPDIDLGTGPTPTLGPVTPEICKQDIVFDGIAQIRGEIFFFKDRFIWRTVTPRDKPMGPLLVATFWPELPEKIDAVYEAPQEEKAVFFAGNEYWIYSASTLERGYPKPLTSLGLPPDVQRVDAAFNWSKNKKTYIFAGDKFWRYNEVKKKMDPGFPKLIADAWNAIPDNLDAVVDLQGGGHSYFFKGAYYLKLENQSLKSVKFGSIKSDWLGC

T1 sequence (P08254 100-274 limits assumed): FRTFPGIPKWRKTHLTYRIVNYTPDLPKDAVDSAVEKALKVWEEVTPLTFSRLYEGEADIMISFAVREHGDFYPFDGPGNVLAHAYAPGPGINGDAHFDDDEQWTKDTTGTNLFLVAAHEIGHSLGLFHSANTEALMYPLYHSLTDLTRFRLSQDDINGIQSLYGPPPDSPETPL

Compound	inhibition at 5 µM (MMP-3)	inhibition at 5 µM (MMP-9)	inhibition at 5 µM (MMP-2; at 5 μM)	IC50 (MMP-3)	IC50 (MMP-9)	IC50 (MMP-2)
CCCCCOc1ccc(-c2ccc(C(=O)C[C@@H](CCCc3ccccc3)C(=O)O)cc2)cc1 [Example 87, 4-[4-(4-pentyloxyphenyl)phenyl]-4-oxo-2R-(3-phenylpropyl)butanoic acid]	8%	0%	40%			
O=C(CC(CCCc1ccccc1)C(=O)O)c1ccc(-c2ccc(OCC3CCCCC3)cc2)cc1 (stereo not drawn) [Example 93, [1,1'-Biphenyl]-4-butanoic acid, 4'-(cyclohexylmethoxy)-γ-oxo-α-(3-phenylpropyl)-]				129 nM	> 1250 nM	36 nM
CC(C)COc1ccc(-c2ccc(C(=O)CC(CCCc3ccccc3)C(=O)O)cc2)cc1 (stereo not drawn) [Example 94, [1,1'-Biphenyl]-4-butanoic acid, 4'-(2-methylpropoxy)-γ-oxo-α-(3-phenylpropyl)-]				224 nM	1850 nM	155 nM
C=CCOc1ccc(-c2ccc(C(=O)CC(CCCc3ccccc3)C(=O)O)cc2)cc1 (stereo not drawn) [Example 95, [1,1'-Biphenyl]-4-butanoic acid, γ-oxo-α-(3-phenylpropyl)-4'-(2-propenyloxy)-]				79 nM	77 nM	26 nM
CC(C)CCOc1ccc(-c2ccc(C(=O)CC(CCCc3ccccc3)C(=O)O)cc2)cc1 (stereo not drawn) [Example 96, [1,1'-Biphenyl]-4-butanoic acid, 4'-(3-methylbutoxy)-γ-oxo-α-(3-phenylpropyl)-]				232 nM	> 1250 nM	72 nM
O=C(CC(CCCc1ccccc1)C(=O)O)c1ccc(-c2ccc(OCC3CC3)cc2)cc1 (stereo not drawn) [Example 97, [1,1'-Biphenyl]-4-butanoic acid, 4'-(cyclopropylmethoxy)-γ-oxo-α-(3-phenylpropyl)-]				153 nM	229 nM	48 nM
O=C(CC(CCCc1ccccc1)C(=O)O)c1ccc(-c2ccc(OCc3ccccc3)cc2)cc1 (stereo not drawn) [Example 99, 4-[4-(4-benzyloxyphenyl)phenyl]-4-oxo-2-(3-phenylpropyl)butanoic acid]				36 nM	835 nM	26 nM
O=C(C[C@@H](CCCc1ccccc1)C(=O)O)c1ccc(-c2ccc(OCc3ccccc3)cc2)cc1 [Example 101, 4-[4-(4-benzyloxyphenyl)phenyl]-4-oxo-2R-(3-phenylpropyl)butanoic acid]	45%	10%				3320 nM
O=C(CC(CCCc1ccccc1)C(=O)O)c1ccc(-c2ccc(OCCc3ccccc3)cc2)cc1 (stereo not drawn) [Example 102, [1,1'-Biphenyl]-4-butanoic acid, γ-oxo-4'-(2-phenylethoxy)-α-(3-phenylpropyl)-]				78 nM	698 nM	25 nM
Cc1ccc(COc2ccc(-c3ccc(C(=O)CC(CCCc4ccccc4)C(=O)O)cc3)cc2)cc1 (stereo not drawn) [Example 103, [1,1'-Biphenyl]-4-butanoic acid, 4'-[(4-methylphenyl)methoxy]-γ-oxo-α-(3-phenylpropyl)-]		28%		57 nM		30 nM
O=C(CC(CCCc1ccccc1)C(=O)O)c1ccc(-c2ccc(OCc3ccc(C(F)(F)F)cc3)cc2)cc1 (stereo not drawn) [Example 104, [1,1'-Biphenyl]-4-butanoic acid, γ-oxo-α-(3-phenylpropyl)-4'-[[4-(trifluoromethyl)phenyl]methoxy]-]		18%		125 nM		63 nM
COc1ccc(COc2ccc(-c3ccc(C(=O)CC(CCCc4ccccc4)C(=O)O)cc3)cc2)cc1 (stereo not drawn) [Example 105, [1,1'-Biphenyl]-4-butanoic acid, 4'-[(4-methoxyphenyl)methoxy]-γ-oxo-α-(3-phenylpropyl)-]		37%		33 nM		14 nM
O=C(CC(CCCc1ccccc1)C(=O)O)c1ccc(-c2ccc(OCc3cccc(Cl)c3)cc2)cc1 (stereo not drawn) [Example 106, [1,1'-Biphenyl]-4-butanoic acid, 4'-[(3-chlorophenyl)methoxy]-γ-oxo-α-(3-phenylpropyl)-]				57 nM	622 nM	43 nM
